Among the data in patent US10647713B2 (Nimbus Lakshmi, Inc., priority 2016, dated 2020) are Kd values, retold here.

Chain of human TYK2 (JH2domain-pseudokinase) (P29597 556-888): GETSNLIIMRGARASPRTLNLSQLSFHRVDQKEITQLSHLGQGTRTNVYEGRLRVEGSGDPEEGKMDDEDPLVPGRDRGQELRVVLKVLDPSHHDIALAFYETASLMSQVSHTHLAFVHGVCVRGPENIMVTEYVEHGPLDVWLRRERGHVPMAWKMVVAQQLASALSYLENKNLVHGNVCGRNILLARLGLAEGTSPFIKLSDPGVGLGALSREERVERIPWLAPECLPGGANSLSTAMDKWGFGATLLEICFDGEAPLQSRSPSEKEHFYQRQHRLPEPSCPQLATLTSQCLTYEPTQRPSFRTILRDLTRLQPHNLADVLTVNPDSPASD

This assay has as its target human TYK2 (JH2domain-pseudokinase) (Homo sapiens (Human), UniProt P29597). The experiment in a line: TYK2 JH2 Domain Binding Assay (KINOMEscan, DiscoveRx). The note with it: 11-point dilution, duplicate. The method, boiled down: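 TYK2 JH2 (G556–D888)–NFkB DBD fusion, DNA-tagged, from HEK293 extracts (<0.1 nM) competed against immobilised biotinylated ligand for 1 h at room temperature, 0.9% DMSO. Bead-retained kinase quantified by qPCR; Kd from 11-point 3-fold series (top 30,000 nM, duplicate), Hill fit with slope −1.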
On to `COc1c(Nc2cc(Nc3cnc(C(C)(C)OC)c(C#N)n3)nc3[nH]c(C)nc23)cccc1-c1nnn(C)n1` [I-204, 6-((7-((2-methoxy-3-(2-methyl-2H-tetrazol-5-yl)phenyl)amino)-2-methyl-3H-imidazo[4,5-b]pyridin-5-yl)amino)-3-(2-methoxypropan-2-yl)pyrazine-2-carbonitrile], for which the Kd is 0.5 to 1 nM.

On to `CS(=O)(=O)c1cc(Cl)ccc1Nc1cc(NC(=O)[C@H]2C[C@H]2F)nc2[nH]c(C(F)F)nc12` [I-205], for which the Kd is 0.5 to 1 nM. `COc1c(Nc2cc(Nc3cc(C(F)(F)F)n(C)n3)nc3[nH]c(C(F)F)nc23)cccc1-c1ncn(C)n1` [I-206, 2-(difluoromethyl)-N7-(2-methoxy-3-(1-methyl-1H-1,2,4-triazol-3-yl)phenyl)-N5-(1-methyl-5-(trifluoromethyl)-1H-pyrazol-3-yl)-3H-imidazo[4,5-b]pyridine-5,7-diamine] had a Kd of 1 to 10 nM. For `Cc1nc2c(Nc3ccc(-c4cncn4C)cc3N(C)S(C)(=O)=O)cc(NC(=O)[C@@H]3C[C@@H]3F)nc2[nH]1` [I-208, (1S,2S)-2-fluoro-N-(2-methyl-7-((4-(1-methyl-1H-imidazol-5-yl)-2-(N-methylmethylsulfonamido)phenyl)amino)-3H-imidazo[4,5-b]pyridin-5-yl)cyclopropane-1-carboxamide] the value was 1 to 10 nM. Next, `Cc1nc2c(Nc3ccc(-c4cnn(C)c4)cc3N(C)S(C)(=O)=O)cc(NC(=O)[C@@H]3C[C@@H]3F)nc2[nH]1` [I-209, (1S,2S)-2-fluoro-N-(2-methyl-7-((4-(1-methyl-1H-pyrazol-4-yl)-2-(N-methylmethylsulfonamido)phenyl)amino)-3H-imidazo[4,5-b]pyridin-5-yl)cyclopropane-1-carboxamide]: 0.1 to 0.5 nM. Next, `Cn1ccc(-c2ccc(Nc3cc(NC(=O)[C@@H]4C[C@@H]4F)nc4[nH]c(C(F)F)nc34)c(S(C)(=O)=O)c2)n1` [I-210, (1S,2S)—N-(2-(difluoromethyl)-7-((4-(1-methyl-1H-pyrazol-3-yl)-2-(methylsulfonyl)phenyl)amino)-3H-imidazo[4,5-b]pyridin-5-yl)-2-fluorocyclopropane-1-carboxamide]: 0.1 to 0.5 nM. `Cc1nc2c(Nc3ccc(-c4ccn(C)n4)cc3S(C)(=O)=O)cc(NC(=O)[C@@H]3C[C@@H]3F)nc2[nH]1` [I-211, (1S,2S)-2-fluoro-N-(2-methyl-7-((4-(1-methyl-1H-pyrazol-3-yl)-2-(methylsulfonyl)phenyl)amino)-3H-imidazo[4,5-b]pyridin-5-yl)cyclopropane-1-carboxamide] had a dissociation constant (Kd) of 0.1 to 0.5 nM.

In the case of `Cn1cncc1-c1ccc(Nc2cc(NC(=O)C3CC3)nc3[nH]c(C(F)F)nc23)c(S(C)(=O)=O)c1` [I-214, N-(2-(difluoromethyl)-7-((4-(1-methyl-1H-imidazol-5-yl)-2-(methylsulfonyl)phenyl)amino)-3H-imidazo[4,5-b]pyridin-5-yl)cyclopropanecarboxamide], the dissociation constant Kd is below 0.1 nM. As to `Cc1nc2c(Nc3ccc(-c4cncn4C)cc3S(C)(=O)=O)cc(NC(=O)C3CC3)nc2[nH]1` [I-215, N-(2-methyl-7-((4-(1-methyl-1H-imidazol-5-yl)-2-(methylsulfonyl)phenyl)amino)-3H-imidazo[4,5-b]pyridin-5-yl)cyclopropanecarboxamide], the Kd was below 0.1 nM. `Cc1cc(-c2ccc(Nc3cc(NC(=O)C4CC4)nc4[nH]c(C(F)F)nc34)c(S(C)(=O)=O)c2)nn1C` [I-216, N-(2-(difluoromethyl)-7-((4-(1,5-dimethyl-1H-pyrazol-3-yl)-2-(methylsulfonyl)phenyl)amino)-3H-imidazo[4,5-b]pyridin-5-yl)cyclopropanecarboxamide] gave a dissociation constant Kd below 0.1 nM. For `Cc1nc2c(Nc3ccc(-c4cc(C)n(C)n4)cc3S(C)(=O)=O)cc(NC(=O)C3CC3)nc2[nH]1` [I-217, N-(7-((4-(1,5-dimethyl-1H-pyrazol-3-yl)-2-(methylsulfonyl)phenyl)amino)-2-methyl-3H-imidazo[4,5-b]pyridin-5-yl)cyclopropanecarboxamide] the value was below 0.1 nM.
